In patent US20060276416A1, “Methods and compositions for treating flushing and drug induced weight gain” (Sirtris Pharmaceuticals, Inc., priority 2005, published 2006):

Legend:
[1] = target: T1, recombinant human SIRT1 (Homo sapiens, UniProt Q96EB6); experiment: SIRT1 fluorescent deacetylation assay (p53-382 acetylated peptide); type: biochemical
T1 sequence (Q96EB6 1-747): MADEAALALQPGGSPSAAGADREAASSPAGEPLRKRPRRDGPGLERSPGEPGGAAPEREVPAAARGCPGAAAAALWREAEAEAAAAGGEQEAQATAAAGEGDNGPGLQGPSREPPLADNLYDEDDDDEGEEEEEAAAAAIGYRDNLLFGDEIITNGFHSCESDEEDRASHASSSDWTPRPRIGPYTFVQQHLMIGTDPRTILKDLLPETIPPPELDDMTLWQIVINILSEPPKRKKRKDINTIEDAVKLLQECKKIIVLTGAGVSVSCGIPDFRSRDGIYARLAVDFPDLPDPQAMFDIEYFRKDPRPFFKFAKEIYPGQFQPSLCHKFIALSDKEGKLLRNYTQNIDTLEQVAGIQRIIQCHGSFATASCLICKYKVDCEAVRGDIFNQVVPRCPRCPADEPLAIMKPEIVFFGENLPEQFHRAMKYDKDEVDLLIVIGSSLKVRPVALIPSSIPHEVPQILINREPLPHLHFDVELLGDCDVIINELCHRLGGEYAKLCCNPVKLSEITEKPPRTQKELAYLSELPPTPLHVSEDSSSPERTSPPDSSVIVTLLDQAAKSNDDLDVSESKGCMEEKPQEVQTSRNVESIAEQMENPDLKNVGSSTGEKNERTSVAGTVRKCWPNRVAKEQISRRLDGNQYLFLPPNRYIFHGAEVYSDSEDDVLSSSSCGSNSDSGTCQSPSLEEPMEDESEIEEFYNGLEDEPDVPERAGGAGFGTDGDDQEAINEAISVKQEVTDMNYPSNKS
Method: To identify compounds that modulate SIRT1 activity, a number of small molecule libraries were screened using a fluorescent deacetylation assay in 96-well plates^26. The substrate used in the assay was a fluorogenic peptide based on the sequence encompassing the p53-K382 acetylation site, a known target of SIRT1 in vivo^20,21,27. […] The small molecule libraries included analogues of nicotinamide, ε-acetyl lysine, NAD^+, nucleotides, nucleotide analogues and purinergic ligands.
From 0.1 to 1 μg of SIRT1 and 1.5 μg of Sir2 were used per deacetylation assay (in 50 μl total reaction) as previously described^26. SIRT1 assays and certain of those for Sir2 employed the p53-382 acetylated substrate (‘Fluor de Lys-SIRT1’, BIOMOL) rather than FdL.
Themed compound libraries (BIOMOL) were used for primary and secondary screening. Most polyphenol compounds were dissolved at 10 mM in dimethylsulfoxide (DMSO) on the day of the assay. For water soluble compounds and negative controls, 1% v/v DMSO was added to the assay. In vitro fluorescence assay results were read in white ½-volume 96-well microplates (Corning Costar 3693) with a CytoFluor™ II fluorescence plate reader (PerSeptive Biosystems, Ex. 360 nm, Em. 460 nm, gain=85). […] Unless otherwise indicated all initial rate measurements were means of three or more replicates, obtained with single incubation times, at which point 5% or less of the substrate initially present had been deacetylated. Calculation of net fluorescence increases included subtraction of a blank value, which in the case of Sir2 was obtained by omitting the enzyme from the reaction and in the case of SIRT1 by adding an inhibitor (200 μM suramin or 1 mM nicotinamide) to the reaction prior to the acetylated substrate. A number of the polyphenols partially quenched the fluorescence produced in the assay and correction factors were obtained by determining the fluorescence increase due to a 3 μM spike of an FdL deacetylated standard (BIOMOL, catalog number KI-142). All error bars represent the standard error of the mean.
All SIRT1 rate measurements used in the calculation of “Ratio to Control Rate” were obtained with 25 μM NAD^+ and 25 μM p53-382 acetylated peptide substrate were performed as described above and in K. T. Howitz et al. Nature (2003) 425: 191. All ratio data were calculated from experiments in which the total deacetylation in the control reaction was 0.25-1.25 μM peptide or 1-5% of the initial concentration of acetylated peptide.

[2] = system: Human 293; experiment: Survival of 293 cells (Coulter counter); type: cell-based; conditions: 50 micromolar
Text: The number of live cells each time point was counted using a Coulter counter.

[3] = system: C. elegans; experiment: C. elegans fat accumulation, Nile Red staining; type: in vivo; conditions: 100 μM
Method: Fat accumulation was visualized with Nile Red staining, as described further below and in Ashrafi K, et al. Nature 421:268-27 (2003).
Synchronized starved L1 worms were grown in the presence of Nile Red. Strains were grown on NGM plates at 25° C. for approximately 48 hours until the young adult stage was reached. 20-30 young adult worms were then washed 2× with M9 buffer and transferred to new NGM/Nile red experimental plates that contained either OP50 or HTT5 E. coli carrying the L4440 RNAi control vector.
Young adults were transferred to plates containing the appropriate vector, Nile Red stain and drug then maintained at 25° C.
Nile Red: Nile Red Powder (Sigma #N-3013) was dissolved in acetone at 500 μg/ml, diluted in 1× Phosphate Buffered Saline (PBS) including appropriate drug and applied to surface of Nematode Growth Media (NGM) plates previously seeded with OP50 or RNAi bacteria, at a final concentration of 0.05 μg/ml. Fat content was monitored and recorded by fluorescence microscopy.

[4] = system: HeLa S3 cells; experiment: Cellular deacetylase assay (TSA-insensitive FdL deacetylation); type: cell-based, human; conditions: 500 μM compound, 200 μM FdL, 1 μM TSA, 1 hour
Method: FdL (200 μM) is added to growth media and cells incubated for 1-3 hours to allow FdL to enter the cells and the lysine-deacetylated product (deAc-FdL) to accumulate intracellularly. Cells are lysed with detergent in the presence of 1 μM TSA, 1 mM nicotinamide. Addition of the non-cell-permeable Developer (BIOMOL) releases a fluorophor, specifically from deAc-FdL. b, SIRT1 activating polyphenols can stimulate TSA-insensitive, FdL deacetylation by HeLa S3 cells. Cells were grown adherently in DMEM/10% FCS and treated for 1 hour with 200 μM FdL, 1 μM TSA and either vehicle (0.5% final DMSO, Control) or 500 μM of the indicated compound. Intracellular accumulation of deAc-FdL was then determined as described briefly in a. […] Lysates were prepared and analyzed as above. […]
Themed compound libraries (BIOMOL) were used for primary and secondary screening. […] In vitro fluorescence assay results were read in white ½-volume 96-well microplates (Corning Costar 3693) with a CytoFluor™ II fluorescence plate reader (PerSeptive Biosystems, Ex. 360 nm, Em. 460 nm, gain=85). HeLa cells were grown and the cellular deacetylation assays were performed and read, as above, but in full-volume 96-well microplates (Corning Costar 3595). […]

Structure (SMILES)	v1/v2 (rate for pure SIRT1/BML-230 divided by that for pure SIRT1/resveratrol) ([1]; R at 500 μM)	Stimulated SIRT1 activity compared with resveratrol ([1]; all concentrations tested, 25 μM NAD+ and p53-382 peptide, 20 minutes)	Dissociation constant of SIRT1 complex compared with SIRT1/resveratrol ([1]; inferred from two state model)	Toxicity on 293 cells (in words) [2]	Fat staining ([3]; 24 hours, control 1% v/v DMSO)	Effect on the cellular (TSA-insensitive) deacetylation signal [4]	Fat mobilization ([3]; 48 hours)
CSc1ccc(/C=C/c2cc(O)cc(O)c2)cc1 [BML-230, 3,5-dihydroxy-4′-thiomethyl-trans-stilbene]	≤ 1.4	exceeds	lower dissociation constant	The results indicate that thiomethyl (BML-230) was the least toxic on 293 cells.	Significant reduction		
O=C(/C=C/c1ccc(O)c(O)c1)c1ccc(O)cc1O [butein, 3,4,2′,4′-Tetrahydroxychalcone]						no effect	stimulate fat mobilization
